{"source": "patent US8247211B2", "about": "“Glycopeptide antibiotics” (American Cyanamid Company, priority 2001, dated 2012)", "assay_in_all_cases": "In vitro antibacterial evaluation: minimum inhibitory concentration (MIC), broth dilution method", "type_in_all_cases": "cell-based", "key": {"Escherichia coli [1]": {"system": "Escherichia coli", "summary_of_the_method": "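MIC read as lowest drug level preventing visible growth. Organisms at 5×10^5 CFU/mL were exposed to a 64-0.06 μg/mL dilution series in Muller-Hinton II […] following NCCLS broth dilution standard M7-A2.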"}, "Streptococcus sp.": {"system": "Streptococcus sp.", "conditions": "18 hours at 35° C.", "summary_of_the_method": "(§1)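 Inoculum: 5×10^5 CFU/mL. Range: 64-0.06 μg/mL. Medium: Muller-Hinton II […]; NCCLS M7-A2 broth dilution. Endpoint: lowest concentration inhibiting growth. Strains include methicillin-, penicillin- and/or vancomycin-resistant clinical isolates.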"}, "Enterococcus sp.": {"system": "Enterococcus sp.", "summary_of_the_method": "as §1"}, "Staphylococcus sp.": {"system": "Staphylococcus sp.", "conditions": "18 hours at 35° C.", "summary_of_the_method": "as §1"}, "Escherichia coli [2]": {"system": "Escherichia coli", "remark": "listed apart in the source"}}}
{"substance": "α-O-[(Benzylamino)carbonyl]-cyclo[glycyl-β-methylphenylalanyl-O-(4-O-hexopyranosylhexopyranosyl)tyrosyl-3(2-iminoimidazolidin-4-yl)seryl-3-(3-hexopyranosyl-2-iminoimidazolidin-4-yl)serylseryl] [Example 257]", "values": [{"measurement": "MIC Escherichia coli (GC 4559)", "setting": "Escherichia coli [1]; Escherichia coli (GC 4559)", "value": ">0.5", "unit": "µg/mL"}, {"measurement": "MIC Escherichia coli (GC 4560)", "setting": "Escherichia coli [1]; Escherichia coli (GC 4560)", "value": 0.5, "unit": "µg/mL"}, {"measurement": "MIC Streptococcus agalactiae (GC 4564)", "setting": "Streptococcus sp.; Streptococcus agalactiae (GC 4564)", "value": 2, "unit": "µg/mL"}, {"measurement": "MIC Streptococcus pneumoniae (ATCC 6301)", "setting": "Streptococcus sp.; Streptococcus pneumoniae (ATCC 6301)", "value": 0.25, "unit": "µg/mL"}, {"measurement": "MIC Streptococcus pneumoniae (GC 1894)", "setting": "Streptococcus sp.; Streptococcus pneumoniae (GC 1894)", "value": 0.25, "unit": "µg/mL"}, {"measurement": "MIC Streptococcus pneumoniae (GC 4565)", "setting": "Streptococcus sp.; Streptococcus pneumoniae (GC 4565)", "value": 1, "unit": "µg/mL"}, {"measurement": "MIC Streptococcus pyogenes (GC 4563)", "setting": "Streptococcus sp.; Streptococcus pyogenes (GC 4563)", "value": 0.12, "unit": "µg/mL"}, {"measurement": "MIC Streptococcus pneumoniae (ATCC 6301)", "setting": "Streptococcus sp.; broth dilution, strain ATCC 6301", "value": 0.25, "unit": "µg/mL"}, {"measurement": "MIC Streptococcus pneumoniae (GC 1894)", "setting": "Streptococcus sp.; broth dilution, strain GC 1894", "value": 0.25, "unit": "µg/mL"}, {"measurement": "MIC Streptococcus pyogenes (GC 4563)", "setting": "Streptococcus sp.; broth dilution, strain GC 4563", "value": 0.12, "unit": "µg/mL"}, {"measurement": "MIC Streptococcus agalactiae (GC 4564)", "setting": "Streptococcus sp.; broth dilution, strain GC 4564", "value": 2, "unit": "µg/mL"}, {"measurement": "MIC Streptococcus pneumoniae (GC 4565)", "setting": "Streptococcus sp.; broth dilution, strain GC 4565", "value": 1, "unit": "µg/mL"}, {"measurement": "MIC Enterococcus avium (GC 4558)", "setting": "Enterococcus sp.; Enterococcus avium (GC 4558)", "value": 0.5, "unit": "µg/mL"}, {"measurement": "MIC Enterococcus faecalis (ATCC 29212)", "setting": "Enterococcus sp.; Enterococcus faecalis (ATCC 29212)", "value": 0.5, "unit": "µg/mL"}, {"measurement": "MIC Enterococcus faecalis (GC 2242)", "setting": "Enterococcus sp.; Enterococcus faecalis (GC 2242), 18 hours at 35° C.", "value": 0.5, "unit": "µg/mL"}, {"measurement": "MIC Enterococcus faecalis (GC 2691)", "setting": "Enterococcus sp.; Enterococcus faecalis (GC 2691), 18 hours at 35° C.", "value": 0.5, "unit": "µg/mL"}, {"measurement": "MIC Enterococcus faecalis (GC 3059)", "setting": "Enterococcus sp.; Enterococcus faecalis (GC 3059), 18 hours at 35° C.", "value": 0.5, "unit": "µg/mL"}, {"measurement": "MIC Enterococcus faecalis (GC 4552)", "setting": "Enterococcus sp.; Enterococcus faecalis (GC 4552), 18 hours at 35° C.", "value": ">0.5", "unit": "µg/mL"}, {"measurement": "MIC Enterococcus faecalis (GC 4553)", "setting": "Enterococcus sp.; Enterococcus faecalis (GC 4553)", "value": 0.5, "unit": "µg/mL"}, {"measurement": "MIC Enterococcus faecalis (GC 4554)", "setting": "Enterococcus sp.; Enterococcus faecalis (GC 4554)", "value": ">0.5", "unit": "µg/mL"}, {"measurement": "MIC Enterococcus faecalis (GC 6189)", "setting": "Enterococcus sp.; Enterococcus faecalis (GC 6189)", "value": 0.5, "unit": "µg/mL"}, {"measurement": "MIC Enterococcus faecium (GC 2243)", "setting": "Enterococcus sp.; Enterococcus faecium (GC 2243)", "value": 16, "unit": "µg/mL"}, {"measurement": "MIC Enterococcus faecium (GC 4556)", "setting": "Enterococcus sp.; Enterococcus faecium (GC 4556)", "value": 16, "unit": "µg/mL"}, {"measurement": "MIC Enterococcus faecium (GC 4557)", "setting": "Enterococcus sp.; Enterococcus faecium (GC 4557)", "value": 2, "unit": "µg/mL"}, {"measurement": "MIC Enterococcus faecalis (ATCC 29212)", "setting": "Enterococcus sp.; broth dilution, 18 hours at 35° C., strain ATCC 29212", "value": 0.5, "unit": "µg/mL"}, {"measurement": "MIC Enterococcus faecalis (GC 2242)", "setting": "Enterococcus sp.; broth dilution, 18 hours at 35° C., strain GC 2242", "value": 0.5, "unit": "µg/mL"}, {"measurement": "MIC Enterococcus faecium (GC 2243)", "setting": "Enterococcus sp.; broth dilution, 18 hours at 35° C., strain GC 2243", "value": 16, "unit": "µg/mL"}, {"measurement": "MIC Enterococcus faecalis (GC 2691)", "setting": "Enterococcus sp.; broth dilution, 18 hours at 35° C., strain GC 2691", "value": 0.5, "unit": "µg/mL"}, {"measurement": "MIC Enterococcus faecalis (GC 3059)", "setting": "Enterococcus sp.; broth dilution, 18 hours at 35° C., strain GC 3059", "value": 0.5, "unit": "µg/mL"}, {"measurement": "MIC Enterococcus faecalis (GC 4552)", "setting": "Enterococcus sp.; broth dilution, 18 hours at 35° C., strain GC 4552", "value": ">0.5", "unit": "µg/mL"}, {"measurement": "MIC Enterococcus faecalis (GC 4553)", "setting": "Enterococcus sp.; broth dilution, 18 hours at 35° C., strain GC 4553", "value": 0.5, "unit": "µg/mL"}, {"measurement": "MIC Enterococcus faecalis (GC 4554)", "setting": "Enterococcus sp.; broth dilution, 18 hours at 35° C., strain GC 4554", "value": ">0.5", "unit": "µg/mL"}, {"measurement": "MIC Enterococcus faecium (GC 4556)", "setting": "Enterococcus sp.; broth dilution, 18 hours at 35° C., strain GC 4556", "value": 16, "unit": "µg/mL"}, {"measurement": "MIC Enterococcus faecium (GC 4557)", "setting": "Enterococcus sp.; broth dilution, 18 hours at 35° C., strain GC 4557", "value": 2, "unit": "µg/mL"}, {"measurement": "MIC Enterococcus avium (GC 4558)", "setting": "Enterococcus sp.; broth dilution, 18 hours at 35° C., strain GC 4558", "value": 0.5, "unit": "µg/mL"}, {"measurement": "MIC Enterococcus faecalis (GC 6189)", "setting": "Enterococcus sp.; broth dilution, 18 hours at 35° C., strain GC 6189", "value": 0.5, "unit": "µg/mL"}, {"measurement": "MIC Coagulase Negative Staphylococcus (GC 4547)", "setting": "Staphylococcus sp.; Coagulase Negative Staphylococcus (GC 4547)", "value": 2, "unit": "µg/mL"}, {"measurement": "MIC Coagulase Negative Staphylococcus (GC 4548)", "setting": "Staphylococcus sp.; Coagulase Negative Staphylococcus (GC 4548)", "value": 2, "unit": "µg/mL"}, {"measurement": "MIC Coagulase Negative Staphylococcus (GC 4549)", "setting": "Staphylococcus sp.; Coagulase Negative Staphylococcus (GC 4549)", "value": 2, "unit": "µg/mL"}, {"measurement": "MIC Coagulase Negative Staphylococcus (GC 4551)", "setting": "Staphylococcus sp.; Coagulase Negative Staphylococcus (GC 4551)", "value": 8, "unit": "µg/mL"}, {"measurement": "MIC Coagulase Negative Staphylococcus (GC 6257)", "setting": "Staphylococcus sp.; Coagulase Negative Staphylococcus (GC 6257)", "value": 1, "unit": "µg/mL"}, {"measurement": "MIC Staphylococcus aureus (ATCC 29213)", "setting": "Staphylococcus sp.; Staphylococcus aureus (ATCC 29213)", "value": 0.5, "unit": "µg/mL"}, {"measurement": "MIC Staphylococcus aureus (GC 1131)", "setting": "Staphylococcus sp.; Staphylococcus aureus (GC 1131)", "value": 0.5, "unit": "µg/mL"}, {"measurement": "MIC Staphylococcus aureus (GC 3051)", "setting": "Staphylococcus sp.; Staphylococcus aureus (GC 3051)", "value": 0.5, "unit": "µg/mL"}, {"measurement": "MIC Staphylococcus aureus (GC 3053)", "setting": "Staphylococcus sp.; Staphylococcus aureus (GC 3053)", "value": 0.5, "unit": "µg/mL"}, {"measurement": "MIC Staphylococcus aureus (GC 4541)", "setting": "Staphylococcus sp.; Staphylococcus aureus (GC 4541)", "value": 0.5, "unit": "µg/mL"}, {"measurement": "MIC Staphylococcus aureus (GC 4542)", "setting": "Staphylococcus sp.; Staphylococcus aureus (GC 4542)", "value": 0.5, "unit": "µg/mL"}, {"measurement": "MIC Staphylococcus aureus (GC 4544)", "setting": "Staphylococcus sp.; Staphylococcus aureus (GC 4544)", "value": 0.5, "unit": "µg/mL"}, {"measurement": "MIC Staphylococcus aureus (GC 4545)", "setting": "Staphylococcus sp.; Staphylococcus aureus (GC 4545)", "value": 0.5, "unit": "µg/mL"}, {"measurement": "MIC Staphylococcus aureus-SMITH (GC 4543)", "setting": "Staphylococcus sp.; Staphylococcus aureus-SMITH (GC 4543)", "value": 0.5, "unit": "µg/mL"}, {"measurement": "MIC Staphylococcus haemolyticus (GC 4546)", "setting": "Staphylococcus sp.; Staphylococcus haemolyticus (GC 4546)", "value": 2, "unit": "µg/mL"}, {"measurement": "MIC Staphylococcus aureus (ATCC 29213)", "setting": "Staphylococcus sp.; broth dilution, strain ATCC 29213", "value": 0.5, "unit": "µg/mL"}, {"measurement": "MIC Staphylococcus aureus (GC 1131)", "setting": "Staphylococcus sp.; broth dilution, strain GC 1131", "value": 0.5, "unit": "µg/mL"}, {"measurement": "MIC Staphylococcus aureus (GC 3051)", "setting": "Staphylococcus sp.; broth dilution, strain GC 3051", "value": 0.5, "unit": "µg/mL"}, {"measurement": "MIC Staphylococcus aureus (GC 3053)", "setting": "Staphylococcus sp.; broth dilution, strain GC 3053", "value": 0.5, "unit": "µg/mL"}, {"measurement": "MIC Staphylococcus aureus (GC 4541)", "setting": "Staphylococcus sp.; broth dilution, strain GC 4541", "value": 0.5, "unit": "µg/mL"}, {"measurement": "MIC Staphylococcus aureus (GC 4542)", "setting": "Staphylococcus sp.; broth dilution, strain GC 4542", "value": 0.5, "unit": "µg/mL"}, {"measurement": "MIC Staphylococcus aureus (GC 4544)", "setting": "Staphylococcus sp.; broth dilution, strain GC 4544", "value": 0.5, "unit": "µg/mL"}, {"measurement": "MIC Staphylococcus aureus (GC 4545)", "setting": "Staphylococcus sp.; broth dilution, strain GC 4545", "value": 0.5, "unit": "µg/mL"}, {"measurement": "MIC Escherichia coli (ATCC 25922)", "setting": "Escherichia coli [2]", "value": ">0.5", "unit": "µg/mL"}]}
